Earlier results, collected in US20030004236A1, “Magnetic resonance imaging agents for detection and delivery of therapeutic agents and detection of physiological substances” (priority 2001, published 2003).

Conditions: thermodynamic stability of the Gd(III) chelate; background section

O=C([O-])CN1CCN(CC(=O)[O-])CCN(CC(=O)O)CCN(CC(=O)[O-])CC1.[Gd+3] [Gd-DOTA]
stability constant (K), also known as formation constant, logK: 28.5

O=C([O-])CN(CCN(CC(=O)[O-])CC(=O)[O-])CCN(CC(=O)[O-])CC(=O)[O-].[Gd+3] [Gd(DTPA)^2−]
stability constant (K), also known as formation constant, logK: 22.4
